The target of assay [1] is T1, ecDHFR (wild-type, l-DHFR) (Escherichia coli, UniProt P0ABQ4).
T1 sequence (P0ABQ4 1-159): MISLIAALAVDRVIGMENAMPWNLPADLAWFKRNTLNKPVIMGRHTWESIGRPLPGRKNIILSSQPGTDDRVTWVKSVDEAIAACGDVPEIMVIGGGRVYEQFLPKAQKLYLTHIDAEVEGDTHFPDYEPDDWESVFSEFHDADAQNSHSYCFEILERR
Description: stopped-flow fluorescence. The assay is classed as binding.

For assay [2], the target named is T1, ecDHFR (wild-type, l-DHFR). Put plainly: steady-state absorbance at […] nm. The assay is classed as biochemical. Particulars: read-out: 25 °C, pH 7 / l-DHFR, MTEN buffer pH 7, 25 °C.
For assay [3], the target named is T1, ecDHFR (wild-type, l-DHFR). Put plainly: stopped-flow tryptophan fluorescence quenching, koff/kon. The assay is classed as binding.

Read-outs that look alike come from different tables or passages of the source.

In turn, `NC(=O)C1=CN([C@@H]2O[C@H](COP(=O)(O)OP(=O)(O)OC[C@H]3O[C@@H](n4cnc5c(N)ncnc54)[C@H](OP(=O)(O)O)[C@@H]3O)[C@@H](O)[C@H]2O)C=CC1` [NADPH] yielded a Kd in assay [1] of 180 ± 90 nM. For the same compound, in assay [2] (100 μM DHF), the Km stood at 7.2 ± 0.8 µM. Consider `Nc1nc2c(c(=O)[nH]1)N=C(CNc1ccc(C(=O)N[C@@H](CCC(=O)O)C(=O)O)cc1)CN2` [DHF], for which the Km in assay [2] (100 μM NADPH) is 0.53 ± 0.04 µM. For the compound `Nc1nc2ncc(CNc3ccc(C(=O)N[C@@H](CCC(=O)O)C(=O)O)cc3)nc2c(=O)[nH]1` [FA], the Kd in assay [3] was found to be 3220 ± 90 nM.
